Marks after values point to notes of the source that are not given here.
Columns and labels:
anemic Wistar rats = test: Prevention of iron absorption in anemic rats; type: in vivo, rat; details: 1 h before 0.5 mg/kg ferrous sulfate
Experimental: To assess the in vivo efficacy of ferroportin (Fpn) inhibitors to block iron absorption, a series of Fpn inhibitors were tested in an anemic rat model for iron absorption. Wistar rats (3-4 weeks old, n=5, Janvier Labs) were fed a low iron diet (Provimi-Kliba, Cat. 2039) until their hemoglobin (Hb) values reach 7-8 g/dl one day before dosing of the Fpn inhibitor compounds. One hour before oral application of 0.5 mg/kg of ferrous sulfate, test compounds formulated in methyl cellulose or Cremophor were dosed orally. Blood samples were taken by tail vein puncture one hour before administration of iron (−1 h), immediately after dosing of the Fpn inhibitors (0 h) and one hour (1 h), three hours (3 h) and occasionally up to 6 hours (6 h) after dosing of the test compounds. Serum iron levels were measured (Abbott Diagnostics, Cat. 6K95) and inhibition of the rise of serum iron three hours after dosing of the test compound was calculated as a measure for efficacy of the Fpn inhibitors in blocking iron absorption (Table 7).

b2m−/− mice = test: Correction of hyperferremia in beta2-microglobulin deficient mice; type: in vivo, mouse; details: male b2m−/− mice, Dose 20 mg/kg oral, blood collected 1 (#) hour after dosing
Experimental: Female and male homozygous b2m−/− mice were supplied from Jackson Laboratories (B6.129P2-B2mtm1Unc/J, Stock Number: 002087) at age of 6 to 7 weeks and fed standard diet (Harlan Provimi Kliba 3436) ad libitum. Age and gender matched WT C57BL/6 mice are supplied by Charles River. To study the acute effects of ferroportin (Fpn) inhibitors in iron overload b2m−/− mice were treated with compounds or the corresponding amount of vehicle at a volume of 10 ml/kg body weight. Fpn inhibitor compounds were formulated in 0.5% methylcellulose/water or 20% cremophor EL/water and dosed p.o. in mice at 50 mg/kg body weight. WT controls received only vehicle. Three hours later, mice were pre-terminally anesthetized in isoflurane chambers and blood was collected by retro-orbital bleeding. Mice were sacrificed by cervical dislocation and spleens, livers and duodena were harvested and used for biomarker analysis. All experiments have been performed in compliance with license approved by the responsible veterinarian authorities. Serum was isolated by centrifugation of blood into gel-containing microtainers (BD Biosciences) and serum iron was determined by the MULTIGENT Iron assay (Abbott Diagnostics, Cat. 6K95). Four to nine mice per group were used and one-way ANOVA with Bonferroni's multiple comparison test was applied to analyze the statistical differences between the experimental groups.
Blood was collected 1 (#) or 3 (##) hours after oral administration of the indicated doses of Fpn inhibitors to beta2-microglobulin deficient mice and serum iron concentrations were measured. Relative reduction (%) of serum iron levels are shown, which were calculated by subtracting the average of serum iron values of animals dosed with the Fpn inhibitor from that of vehicle-treated animals. The difference in average serum iron values between vehicle and compound treated groups was then divided by the average of serum iron of the vehicle control group and listed as percentage.

Hbb th3/+ mice = test: Improvement of anemia, ineffective erythropoiesis and iron overload in a mouse model of β-thalassemia intermedia; type: in vivo; details: % change to vehicle; for Decrease in serum iron: dosed for 3 h
Experimental: The efficacy of Fpn inhibitors was investigated using a mouse model of transfusion-independent β-thalassemia. Mice with heterozygous deletion of β1 and β2 globin genes (called Hbb th3/+ mice) develop transfusion-independent anemia, ineffective erythropoiesis, splenomegaly and secondary iron overload in spleen, liver and kidneys. […] Hbb th3/+ mice were dosed twice daily with either compound at 20 or 60 mg/kg or with methylcellulose (10 ml/kg, Sigma, Cat. 274429) as a vehicle. Between both doses mice had access to drinking water supplemented with 1 mM ^58Fe(II)-sulfate (Vifor Pharma, Batch No. ROR 3096) and 10 mM ascorbic acid (Sigma, Cat. 795437) for 6 h. […] Water without ^58Fe(II)-Sulfate and ascorbic acid was provided during the remaining 18 h. Dosing of Fpn inhibitors or vehicle followed by exposure to iron-containing water was repeated for 20 to 46 days in individual experiments.
Additional hematologic parameters were measured in terminal blood using automated blood cell analyzer.
The inefficient erythropoiesis of Hbb th3/+ mice causes excessive proliferation of erythroid precursors in spleen, leading to splenomegaly.
Erythroferrone is produced by erythrocyte precursors proliferating massively in spleens of Hbb th3/+ mice as a consequence of extramedullar erythropoiesis.
Increased iron demand due to inefficient erythropoiesis and chronically low hepcidin levels in patients with thalassemia causes organ iron loading and associated morbidities, such as hepatocellular carcinoma and heart failure (Rivella S. Haematologica, 2015). Hbb th3/+ mice absorb excessive amounts of iron as a consequence of inadequately low hepcidin levels relative to the high iron content in liver, spleen and kidney and increased ferroportin expression in duodenum (Gardenghi S., Blood, 2007).
Additionally, reactive oxygen species (ROS) were detected in bone marrow cells using a fluorescent indicator, CM-H2DCFDA (Thermo Fisher Scientific, Cat. C6827).
Table 10. Efficacy of Ferroportin inhibitors in a mouse model of thalassemia intermedia (Hbb th3/+ mice). […] Data are expressed as difference to the vehicle control group for hemoglobin and as % change to the vehicle control group for all other parameter shown

Row | SMILES | Serum Iron Inhibition (%) at 3 h (anemic Wistar rats; Dose 10 mg/kg oral) | Serum Iron Inhibition (%) at 3 h (anemic Wistar rats; Dose 30 mg/kg oral) | Serum Iron Reduction (%) (b2m−/− mice) | Decrease in serum erythropoietin (Hbb th3/+ mice; 20 mg/kg twice daily for 20-46 days) [%] | Decrease in serum iron (Hbb th3/+ mice; 20 mg/kg) [%] | Decrease in serum iron (Hbb th3/+ mice; 60 mg/kg) [%]
1 | O=C(NCc1ncccc1F)c1cnc(CCNCCc2nc3ccccc3[nH]2)o1 [Example 1] | 42.6** % | 64.9*** % |  |  |  | 
2 | O=C(NCc1ncccc1F)c1csc(CCNCc2nc3ccccc3[nH]2)n1 [Example 40] |  |  | 35** % | 6 | 28 | 58

— patent publication US11066399B2, “Ferroportin inhibitors” (Vifor (International) AG, priority 2015, dated 2021)
